# What was measured:
# [1] = target: Neuronal acetylcholine receptor; alpha4/beta2 (Homo sapiens, UniProt P17787+P43681); test: Binding affinity at heteropentameric Nicotinic acetylcholine receptor alpha4-beta2 subtype using […] as radioligand; type: protein-complex assay
# [2] = target: Neuronal acetylcholine receptor subunit alpha-7 (Homo sapiens, UniProt P36544); test: Binding affinity at homopentameric Nicotinic acetylcholine receptor alpha-7 subtype using [3H]-alpha-bungarotoxin as radioligand
# Chain of Neuronal acetylcholine receptor subunit alpha-7 (P36544 whole entry): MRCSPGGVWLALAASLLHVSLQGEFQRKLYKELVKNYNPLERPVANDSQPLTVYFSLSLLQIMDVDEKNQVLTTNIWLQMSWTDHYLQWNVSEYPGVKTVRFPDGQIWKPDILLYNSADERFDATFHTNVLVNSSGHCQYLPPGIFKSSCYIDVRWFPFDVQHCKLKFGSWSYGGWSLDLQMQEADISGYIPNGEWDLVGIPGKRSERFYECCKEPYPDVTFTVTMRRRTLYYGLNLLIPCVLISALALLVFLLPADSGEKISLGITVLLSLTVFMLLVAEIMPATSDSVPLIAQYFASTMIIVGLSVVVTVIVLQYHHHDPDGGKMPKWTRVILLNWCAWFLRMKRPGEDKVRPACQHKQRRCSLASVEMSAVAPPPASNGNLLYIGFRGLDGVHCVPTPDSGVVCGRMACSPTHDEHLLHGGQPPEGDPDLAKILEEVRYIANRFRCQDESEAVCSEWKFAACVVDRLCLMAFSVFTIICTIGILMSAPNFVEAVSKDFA
# Chain of Neuronal acetylcholine receptor; alpha4/beta2 (P17787 whole entry): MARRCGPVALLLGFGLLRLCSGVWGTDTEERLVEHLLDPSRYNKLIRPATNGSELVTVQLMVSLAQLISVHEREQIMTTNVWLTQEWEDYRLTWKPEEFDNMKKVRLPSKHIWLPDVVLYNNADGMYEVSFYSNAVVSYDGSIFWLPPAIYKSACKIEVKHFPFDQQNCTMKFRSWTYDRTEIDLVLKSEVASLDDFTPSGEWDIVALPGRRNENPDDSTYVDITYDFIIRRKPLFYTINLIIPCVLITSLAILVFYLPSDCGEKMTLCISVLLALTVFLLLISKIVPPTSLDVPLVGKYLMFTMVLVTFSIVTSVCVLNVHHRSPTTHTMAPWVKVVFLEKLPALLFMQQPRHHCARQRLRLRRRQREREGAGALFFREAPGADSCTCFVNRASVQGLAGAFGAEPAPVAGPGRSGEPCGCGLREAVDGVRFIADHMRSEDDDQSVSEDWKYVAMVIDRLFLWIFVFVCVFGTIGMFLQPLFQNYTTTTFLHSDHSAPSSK
# Chain of Neuronal acetylcholine receptor; alpha4/beta2 (P43681 whole entry): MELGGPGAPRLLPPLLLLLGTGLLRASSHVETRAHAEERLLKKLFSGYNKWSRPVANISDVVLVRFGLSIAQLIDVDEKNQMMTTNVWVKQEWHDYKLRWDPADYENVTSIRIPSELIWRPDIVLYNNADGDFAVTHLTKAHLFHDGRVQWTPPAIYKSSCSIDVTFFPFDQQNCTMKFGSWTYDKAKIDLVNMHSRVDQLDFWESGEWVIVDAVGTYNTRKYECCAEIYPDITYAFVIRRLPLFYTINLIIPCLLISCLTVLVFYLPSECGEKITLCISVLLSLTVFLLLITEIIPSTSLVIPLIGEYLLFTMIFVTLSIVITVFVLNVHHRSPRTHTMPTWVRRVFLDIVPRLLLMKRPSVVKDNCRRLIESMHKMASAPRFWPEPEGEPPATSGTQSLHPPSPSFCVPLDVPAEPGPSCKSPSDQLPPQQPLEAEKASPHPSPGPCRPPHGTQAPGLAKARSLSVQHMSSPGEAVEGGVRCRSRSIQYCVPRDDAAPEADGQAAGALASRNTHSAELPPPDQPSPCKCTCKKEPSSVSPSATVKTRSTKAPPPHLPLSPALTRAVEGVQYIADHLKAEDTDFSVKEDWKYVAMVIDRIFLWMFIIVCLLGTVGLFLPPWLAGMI
Compound,Ki [1] [nM],Ki [2] [nM]
CN1CCCCC1c1cccnc1 (stereo not given),450,9700
CN1C2CCC1C(c1ccc(Cl)nc1)C2 (stereo not given),0.26,–
c1cncc(C2CCN2)c1 (stereo not given),1.1,–
c1cncc(C2CCCCN2)c1 (stereo not drawn) [DL-ANABASINE],92,450
Clc1ccc(C2CC3CCC2N3)cn1 (stereo not given) [EPIBATIDINE],–,25
c1cncc([C@@H]2CCCN2)c1 [NORNICOTINE],–,730
C[N+](C)(C)C [TETRAMETHYLAMMONIUM ION],24,2300
